Experimental data taken from ChEMBL document CHEMBL1201862, “PubChem BioAssay data set” (2004).
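Step 1: Grow cells in 96-well plates. Step 2: Expose to compound for 48 hours at 5 concentrations. Step 3: Interpolate endpoints linearly; if unreached, use highest concentration. Here, GI50 denotes the concentration required for 50% inhibition of growth.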 The source made the active and inactive calls. No stated cut-off is given here; in the data, active = GI50 up to about 1.1 µM and inactive = higher.

Assays:
Test in all cases: NCI anticancer screen, dose series, 48 h
M19-MEL = tested on: M19-MEL
EKVX = tested on: EKVX
DMS-114 = tested on: DMS-114
OVCAR-3 = tested on: OVCAR-3
LXFL 529 = tested on: LXFL 529
NCI-H23 = tested on: NCI-H23
NCI-H522 = tested on: NCI-H522
SK-MEL-28 = tested on: SK-MEL-28
RXF 393 = tested on: RXF 393
KM12 = tested on: KM12
NCI-H226 = tested on: NCI-H226
SF-295 = tested on: SF-295
LOX IMVI = tested on: LOX IMVI
HOP-92 = tested on: HOP-92
OVCAR-8 = tested on: OVCAR-8
SW-620 = tested on: SW-620
HOP-18 = tested on: HOP-18
XF498 = tested on: XF498
KM-20L2 = tested on: KM-20L2
SK-MEL-2 = tested on: SK-MEL-2
OVCAR-5 = tested on: OVCAR-5
HCC 2998 = tested on: HCC 2998
RPMI-8226 = tested on: RPMI-8226
SF-268 = tested on: SF-268
HOP-62 = tested on: HOP-62
OVCAR-4 = tested on: OVCAR-4
MOLT-4 = tested on: MOLT-4
HCT-116 = tested on: HCT-116
Malme-3M = tested on: Malme-3M
NCI-H460 = tested on: NCI-H460
SNB-78 = tested on: SNB-78
UACC-257 = tested on: UACC-257
HCT-15 = tested on: HCT-15
COLO 205 = tested on: COLO 205
CAKI-1 = tested on: CAKI-1
HL-60 = tested on: HL-60
SR = tested on: SR
CCRF-CEM = tested on: CCRF-CEM
SK-OV-3 = tested on: SK-OV-3
UO-31 = tested on: UO-31
DMS-273 = tested on: DMS-273
A549 = tested on: A549
SN12C = tested on: SN12C
SF-539 = tested on: SF-539
UACC-62 = tested on: UACC-62
HT-29 = tested on: HT-29
DLD-1 = tested on: DLD-1
SK-MEL-5 = tested on: SK-MEL-5
ACHN = tested on: ACHN
M14 = tested on: M14
U-251 = tested on: U-251
TK-10 = tested on: TK-10
786-0 = tested on: 786-0
SNB-75 = tested on: SNB-75
SNB-19 = tested on: SNB-19
IGROV-1 = tested on: IGROV-1
K562 = tested on: K562
MDA-N = tested on: MDA-N
A498 = tested on: A498
RXF 631 = tested on: RXF 631

Q: For CCCCCCCCCCCC(=O)CC(=O)c1c(O)cccc1O, which GI50 (M19-MEL) is on record?
A: 18.3 µM (inactive)

Q: What about the GI50 (EKVX) of the same compound?
A: 17.8 µM (inactive)

Q: What about the GI50 (DMS-114) of the same compound?
A: 18.8 µM (inactive)

Q: What about the GI50 (OVCAR-3) of the same compound?
A: 19.8 µM (inactive)

Q: And the GI50 (LXFL 529)?
A: 18.2 µM (inactive)

Q: And the GI50 (NCI-H23)?
A: 19.6 µM (inactive)

Q: What about the GI50 (NCI-H522) of the same compound?
A: 22.2 µM (inactive)

Q: And the GI50 (SK-MEL-28)?
A: 21.4 µM (inactive)

Q: What about the GI50 (RXF 393) of the same compound?
A: 17.7 µM (inactive)

Q: And the GI50 (KM12)?
A: 17.5 µM (inactive)

Q: And the GI50 (NCI-H226)?
A: 16.7 µM (inactive)

Q: What about the GI50 (SF-295) of the same compound?
A: 19.4 µM (inactive)

Q: And the GI50 (LOX IMVI)?
A: 17.4 µM (inactive)

Q: And the GI50 (HOP-92)?
A: 20.4 µM (inactive)

Q: What about the GI50 (OVCAR-8) of the same compound?
A: 16.6 µM (inactive)

Q: What about the GI50 (SW-620) of the same compound?
A: 17.1 µM (inactive)

Q: And the GI50 (HOP-18)?
A: 16.4 µM (inactive)

Q: And the GI50 (XF498)?
A: 18.5 µM (inactive)

Q: What about the GI50 (KM-20L2) of the same compound?
A: 20.5 µM (inactive)

Q: What about the GI50 (SK-MEL-2) of the same compound?
A: 14.1 µM (inactive)

Q: And the GI50 (OVCAR-5)?
A: 15.5 µM (inactive)

Q: What about the GI50 (HCC 2998) of the same compound?
A: 29 µM (inactive)

Q: And the GI50 (RPMI-8226)?
A: 19.6 µM (inactive)

Q: And the GI50 (SF-268)?
A: 16.4 µM (inactive)

Q: And the GI50 (HOP-62)?
A: 23.7 µM (inactive)

Q: What about the GI50 (OVCAR-4) of the same compound?
A: 17.3 µM (inactive)

Q: What about the GI50 (MOLT-4) of the same compound?
A: 19.7 µM (inactive)

Q: And the GI50 (HCT-116)?
A: 16.6 µM (inactive)

Q: And the GI50 (Malme-3M)?
A: 15.5 µM (inactive)

Q: What about the GI50 (NCI-H460) of the same compound?
A: 19 µM (inactive)

Q: What about the GI50 (SNB-78) of the same compound?
A: 19.3 µM (inactive)

Q: And the GI50 (UACC-257)?
A: 17.5 µM (inactive)

Q: What about the GI50 (HCT-15) of the same compound?
A: 22.6 µM

Q: And the GI50 (COLO 205)?
A: 17.3 µM (inactive)

Q: What about the GI50 (CAKI-1) of the same compound?
A: > 10 µM (inactive)

Q: What about the GI50 (HL-60) of the same compound?
A: 34.9 µM (inactive)

Q: And the GI50 (SR)?
A: 19.4 µM (inactive)

Q: And the GI50 (CCRF-CEM)?
A: > 100 µM (inactive)

Q: And the GI50 (SK-OV-3)?
A: 30.4 µM (inactive)

Q: And the GI50 (UO-31)?
A: 14.5 µM (inactive)

Q: And the GI50 (DMS-273)?
A: 18.4 µM (inactive)

Q: And the GI50 (A549)?
A: 17.9 µM (inactive)

Q: What about the GI50 (SN12C) of the same compound?
A: 18.7 µM (inactive)

Q: What about the GI50 (SF-539) of the same compound?
A: 18.5 µM (inactive)

Q: What about the GI50 (UACC-62) of the same compound?
A: 29.4 µM (inactive)

Q: What about the GI50 (HT-29) of the same compound?
A: 17.5 µM (inactive)

Q: And the GI50 (DLD-1)?
A: 17.7 µM (inactive)

Q: What about the GI50 (SK-MEL-5) of the same compound?
A: 19.1 µM (inactive)

Q: And the GI50 (ACHN)?
A: 19.2 µM (inactive)

Q: And the GI50 (M14)?
A: 18 µM (inactive)

Q: What about the GI50 (U-251) of the same compound?
A: 17.7 µM (inactive)

Q: And the GI50 (TK-10)?
A: 24.9 µM (inactive)

Q: What about the GI50 (786-0) of the same compound?
A: 23.3 µM (inactive)

Q: What about the GI50 (SNB-75) of the same compound?
A: 19.4 µM (inactive)

Q: And the GI50 (SNB-19)?
A: 20 µM (inactive)

Q: What about the GI50 (IGROV-1) of the same compound?
A: 18.6 µM (inactive)

Q: And the GI50 (K562)?
A: 26.9 µM (inactive)

Q: Which GI50 (M19-MEL) does the source give for O=c1[nH]c2ccccc2n1C1CCN(CCCC(c2ccc(F)cc2)c2ccc(F)cc2)CC1 [PIMOZIDE] here?
A: 3.81 µM (inactive)

Q: And the GI50 (DMS-114)?
A: 2.22 µM (inactive)

Q: What about the GI50 (LXFL 529) of the same compound?
A: 3.73 µM (inactive)

Q: What about the GI50 (NCI-H522) of the same compound?
A: 2.81 µM (inactive)

Q: What about the GI50 (SK-MEL-28) of the same compound?
A: 2.15 µM (inactive)

Q: And the GI50 (SF-295)?
A: 4.02 µM (inactive)

Q: And the GI50 (HOP-92)?
A: 3.9 µM (inactive)

Q: What about the GI50 (HOP-18) of the same compound?
A: 15.6 µM (inactive)

Q: What about the GI50 (XF498) of the same compound?
A: 4.17 µM (inactive)

Q: And the GI50 (KM-20L2)?
A: 2.01 µM (inactive)

Q: And the GI50 (OVCAR-5)?
A: 8 µM (inactive)

Q: And the GI50 (HCC 2998)?
A: 1.9 µM (inactive)

Q: And the GI50 (SF-268)?
A: 12.1 µM (inactive)

Q: What about the GI50 (HOP-62) of the same compound?
A: 10.7 µM (inactive)

Q: What about the GI50 (OVCAR-4) of the same compound?
A: 8.59 µM (inactive)

Q: And the GI50 (MOLT-4)?
A: 3.67 µM (inactive)

Q: And the GI50 (Malme-3M)?
A: 2.05 µM (inactive)

Q: What about the GI50 (SNB-78) of the same compound?
A: 15.1 µM (inactive)

Q: And the GI50 (HCT-15)?
A: 3.1 µM

Q: And the GI50 (COLO 205)?
A: 1.69 µM (inactive)

Q: What about the GI50 (HL-60) of the same compound?
A: 2.37 µM (inactive)

Q: What about the GI50 (SR) of the same compound?
A: 2.5 µM (inactive)

Q: What about the GI50 (CCRF-CEM) of the same compound?
A: 5.51 µM (inactive)

Q: What about the GI50 (SK-OV-3) of the same compound?
A: 12.8 µM (inactive)

Q: And the GI50 (DMS-273)?
A: 3.45 µM (inactive)

Q: And the GI50 (SN12C)?
A: 12.2 µM (inactive)

Q: What about the GI50 (HT-29) of the same compound?
A: 2.55 µM (inactive)

Q: What about the GI50 (DLD-1) of the same compound?
A: 5.74 µM (inactive)

Q: What about the GI50 (M14) of the same compound?
A: 2.7 µM (inactive)

Q: What about the GI50 (SNB-75) of the same compound?
A: 10.8 µM (inactive)

Q: What about the GI50 (SNB-19) of the same compound?
A: 14.5 µM (inactive)

Q: And the GI50 (IGROV-1)?
A: 13.9 µM (inactive)

Q: And the GI50 (MDA-N)?
A: 9.77 µM (inactive)

Q: And the GI50 (K562)?
A: 2.88 µM (inactive)

Q: Which results are given for CC#COP(=O)(OCC)OCC?
A: GI50 (M19-MEL): > 100 µM (inactive); GI50 (EKVX): > 100 µM (inactive); GI50 (DMS-114): > 100 µM (inactive); GI50 (OVCAR-3): > 100 µM (inactive); GI50 (LXFL 529): > 100 µM (inactive); GI50 (NCI-H23): > 100 µM (inactive); GI50 (NCI-H522): > 100 µM (inactive); GI50 (KM12): > 100 µM (inactive); GI50 (NCI-H226): 23.9 µM (inactive); GI50 (SF-295): > 100 µM (inactive); GI50 (LOX IMVI): > 100 µM (inactive); GI50 (OVCAR-8): > 100 µM (inactive); GI50 (SW-620): > 100 µM (inactive); GI50 (A498): 39.5 µM (inactive); GI50 (KM-20L2): > 100 µM (inactive); GI50 (SK-MEL-2): > 100 µM (inactive); GI50 (OVCAR-5): > 100 µM (inactive); GI50 (HCC 2998): > 100 µM (inactive); GI50 (RXF 631): > 100 µM (inactive); GI50 (RPMI-8226): 85.1 µM (inactive); GI50 (SF-268): > 100 µM (inactive); GI50 (HOP-62): > 100 µM (inactive); GI50 (OVCAR-4): > 100 µM (inactive); GI50 (MOLT-4): > 100 µM (inactive); GI50 (HCT-116): > 100 µM (inactive); GI50 (Malme-3M): > 100 µM (inactive); GI50 (NCI-H460): > 100 µM (inactive); GI50 (SNB-78): > 100 µM (inactive); GI50 (UACC-257): > 100 µM (inactive); GI50 (HCT-15): > 100 µM; GI50 (COLO 205): > 100 µM (inactive); GI50 (CAKI-1): > 100 µM (inactive); GI50 (HL-60): 17.7 µM (inactive); GI50 (SR): 64.6 µM (inactive); GI50 (CCRF-CEM): 75 µM (inactive); GI50 (SK-OV-3): > 100 µM (inactive); GI50 (UO-31): > 100 µM (inactive); GI50 (A549): > 100 µM (inactive); GI50 (SN12C): > 100 µM (inactive); GI50 (SF-539): > 100 µM (inactive); GI50 (UACC-62): > 100 µM (inactive); GI50 (HT-29): > 100 µM (inactive); GI50 (DLD-1): > 100 µM (inactive); GI50 (SK-MEL-5): > 100 µM (inactive); GI50 (ACHN): > 100 µM (inactive); GI50 (M14): > 100 µM (inactive); GI50 (U-251): > 100 µM (inactive); GI50 (TK-10): > 100 µM (inactive); GI50 (786-0): > 100 µM (inactive); GI50 (SNB-19): > 100 µM (inactive); GI50 (IGROV-1): > 100 µM (inactive); GI50 (K562): > 100 µM (inactive)
